Experimental data taken from patent US10106498B2, “Compositions relating to vitamin D” (Siemens Healthcare Diagnostics Inc., priority 2014, dated 2018).
Values joined by “and” are separate entries in the source; they are usually repeats but may differ in a detail not shown here. Equal entries are not always repeated.

System: biotinylated monoclonal anti-25OH vitamin D antibody
Test: LOCI 25(OH)D immunoassay: 3-epimer cross-reactivity, no anti-3-epimer antibody added
Assay type: binding, sheep
Conditions: for Avg. Cross-reactivity, No anti-3-epimer VD Ab Added: average of ten patient sera spiked with 100 ng/mL 3-epimer vitamin D3
Procedure: The 25OH Vitamin D (25(OH)D) immunoassay format employed was a homogeneous competitive chemiluminescent immunoassay based on LOCI® assay technology. The assay was performed on the Siemens Dimension® EXL automated integrated clinical chemistry system (Siemens Healthcare Diagnostics Inc., Deerfield, Ill.). The assay measured the total concentration of 25(OH)D2 and/or 25(OH)D3 in serum and plasma samples. The LOCI® assay reagents included a releasing reagent, two synthetic bead reagents and a biotinylated monoclonal anti-25OH vitamin D antibody reagent. The first bead reagent (designated “Sensibeads”) was coated with streptavidin and contained a photosensitive dye. The second bead reagent (designated “Chemibeads”) was coated with a 25(OH)D3 analog and contained chemiluminescent dye. Sample was incubated with the releasing reagent to release 25(OH)D molecules including 3-epimeric compounds from vitamin D binding proteins. The reaction mixture was then incubated with biotinylated antibody to form a 25(OH)D-biotinylated antibody complex. […] Chemibeads were added to bind excess free biotinylated antibody. Sensibeads were then added to bind to the biotin portion of the biotinylated antibody. Aggregates of Chemibead-analog/antibody-biotin/streptavidin-Sensibeads were formed as a result. Illumination of the reaction mixture with light at 680 nm generates singlet oxygen from Sensibeads, which diffused into the Chemibeads and triggered a chemiluminescent reaction. The resulting chemiluminescent signal was measured at 612 nm and is inversely proportional to the concentration of total 25(OH)D in the sample.
The effect of adding anti-3-epimer-VD antibody 8F10.1 (anti-3-epimer VD Ab) on the 3-epimer cross-reactivity for the assay is shown in Table 1. […] The 3-epimer cross-reactivity was calculated by the difference between 25(OH)D2 or 25(OH)D3 values with and without the spiked 3-epimer compound divided by the amount of added 3-epimer compound.

C=C1CC[C@@H](O)C/C1=C/C=C1\CCC[C@]2(C)[C@@H]([C@H](C)CCCC(C)(C)O)CC[C@@H]12 [3-epimer D3, 3-epi-25-hydroxyvitamin D3]
Avg. Cross-reactivity, No anti-3-epimer VD Ab Added: 13.7%
Avg. Cross-reactivity, No anti-3-epimer VD Ab Added (listed as 3-epimer vitamin D3 compound): 13.7%
Cross-Reactivity, No anti-3-epimer VD Ab Added (individual patient sera (Sample ID 1-10) spiked with 100 ng/mL 3-epimer vitamin D3): 17.9% (2×) and 11.9% and 12.6% and 16.1% and 10.2% and 9.1% and 10.5% and 15.3% and 15.5%
